pEC50, pIC50: −log10 of the molar value.
Columns and labels:
[1] = biological target: dopaminergic (D2) receptors (Rattus norvegicus, UniProt P61169); assay: biochemical; format: binding; settings: striatal rat brain homogenates, ^3H-spiperone, 37° C., 15 minutes; read-out: 3H-Spiperone Displacement IC50
Method: Rats (150±10 g; Charles River) were decapitated, the corpus striatum dissected out and frozen on dry ice. The tissues were pooled and stored at -80° C. until used. Homogenates (Brinkmann Polytron) of the corpus striatum in cold HEPES.KOH buffer (final pH=7.4) were centrifuged at 39,000×G. The supernatant was discarded and the pellets were re-suspended in HEPES.KOH buffer and re-centrifuged as above.
Tests to determine the Inhibitory Concentration50 (IC50) of the compounds of Formula I and reference compounds versus ^3 H-spiperone were conducted as follows. Tubes containing either 100 μL of buffer mixture (for total binding), 100 μL of buffer mixture plus 100 μL of 10^-4 M D(+)-butaclamol (for blanks, i.e. non-specific binding), or 100 μL of buffer mixture containing 10^-7, 10^-6 or 10^-5 M test compound were prepared. To each were added 100 μL of a solution of ^3 H-spiperone (New England Nuclear) in buffer mixture (2000 c.p.m. in the incubation mixture) and 800 μL of the striatal tissue suspension. The tubes were then diluted to 1 mL with buffer mixture, giving a final concentration of 10^-8, 10^-7 or 10^-6 M test compound and approximately 100 pM ^3 H-spiperone. The samples were incubated at 37° C. for 15 minutes, filtered in vacuo on glass fiber filters and counted by liquid scintillation spectrometry. […] All samples were run in duplicate.

[2] = system: Apomorphine-Induced Emesis; assay: Antagonism of Apomorphine-Induced Emesis in Dogs; format: in vivo, beagle dogs; settings: Canis lupus familiaris, sc; s.c. 30 minutes prior to apomorphine 0.3 mg/kg; dog; read-out: Antagonism of Apomorphine-Induced Emesis in the Dog ED50
Method: Unfasted beagle dogs of both sexes were used as test subjects. Test compounds and apomorphine were each administered subcutaneously as aqueous solutions, with the test compound being administered 30 minutes prior to the administration of the apormorphine.
Apomorphine was administered at a dose of 0.3 mg/kg. […] All tests were run in at least two dogs.

[3] = system: field-stimulated guinea pig ileum; assay: Gastrokinetic Activity: contraction of field-stimulated guinea pig ileum preparations; parameters: species or system guinea pig (Hartley); settings: Cavia porcellus; for EC30: effective concentration30, read-out: EC30 (95% C.L.); for pEC50: effective concentration50, read-out: EC50 (95% C.L.); for minimal effective concentration: read-out: Minimum Effective Concentration
Method: This activity is considered to be correlated with gastrokinetic (prokinetic) activity in vivo, i.e. enhancement of gastric motility and gastric emptying.
Normal, male guinea pigs (Hartley; Charles River) weighing […] are sacrificed by cervical dislocation. The terminal portion of the ileum was removed after discarding a 10 cm segment nearest to the ileocecal junction. The strips, 3-4 cm in length, were mounted in a 20 ml organ bath containing Krebs physiological buffer solution. The buffer was bubbled with 95% O2 -5% CO2 and kept at 37° C. The resting tension was adjusted to 1.0 g, and the tissues were equilibrated without stimulation for 15 minutes. For electrical stimulation, a platinum wire (cathode) was threaded up through the lumen and another platinum wire (anode) was attached to the glass rod that suspended the muscle. Tissues were stimulated coaxially at 1.5 times the voltage necessary to produce maximum twitch height, with single pulses, 0.5 msec in duration, delivered once every 10 seconds. After the 15 minute equilibration period (without stimulation), the stimulator (Grass S88 Stimulator) was turned on and the tissues were allowed to stabilize for approximately 1 hour, or until the twitch height remained constant, with washes every 20 minutes.

Cisplatin-Induced Emesis = assay: Antagonism of Cisplatin-Induced Emesis in the Ferret; format: in vivo, Fitch ferrets; settings: Mustela putorius, iv, 4 h; 3 mg/kg, i.v. × 2; read-out: Antagonism of Cisplatin-Induced Emesis in the Ferret, % Protection
Text: The ventral and dorsal area of the neck is shaved and a 3 cm incision is made. The left jugular vein is exposed and ligated with a silk suture at the cephalic end. The indwelling catheter is constructed of Silastic tubing 18 cm in length (0.020 inch I.D.×0.037 inch O.D.) with a 2 cm polyethylene sleeve (0.045 inch I.D.×0.062 inch O.D.) filled with heparin (1000 units/ml) and sealed at the exposed end with a 23 gauge×1 inch needle crimped at both ends. A small cut is made in the jugular and the catheter inserted, allowing the free end to be delivered through a 13 gauge×5 cm trochar under the skin and attached to the nape of the neck with a silk suture. The ferrets are housed in individual cages and allowed 2-4 days recovery before testing. On the test day, the test compounds were administered i.v. […] The cisplatin solution was prepared by adding 70° C. physiological saline, stirring and sonicating until dissolved. The resulting solution (4 mg/ml) was maintained at 40° C. and administered i.v. ([…]) via the catheter. Following administration of cisplatin, the ferrets were observed continuously for four hours and emetic episodes recorded. Two or more emetic episodes within a one-minutes period was considered as a single episode. The ferrets were euthanized with T-61 i.v. at the termination of the experiment, and proper placement of the catheter was verified.

[4] = read-out: Average % Maximum Increase

dopaminergic (D2) receptors, sequence (P61169 whole entry): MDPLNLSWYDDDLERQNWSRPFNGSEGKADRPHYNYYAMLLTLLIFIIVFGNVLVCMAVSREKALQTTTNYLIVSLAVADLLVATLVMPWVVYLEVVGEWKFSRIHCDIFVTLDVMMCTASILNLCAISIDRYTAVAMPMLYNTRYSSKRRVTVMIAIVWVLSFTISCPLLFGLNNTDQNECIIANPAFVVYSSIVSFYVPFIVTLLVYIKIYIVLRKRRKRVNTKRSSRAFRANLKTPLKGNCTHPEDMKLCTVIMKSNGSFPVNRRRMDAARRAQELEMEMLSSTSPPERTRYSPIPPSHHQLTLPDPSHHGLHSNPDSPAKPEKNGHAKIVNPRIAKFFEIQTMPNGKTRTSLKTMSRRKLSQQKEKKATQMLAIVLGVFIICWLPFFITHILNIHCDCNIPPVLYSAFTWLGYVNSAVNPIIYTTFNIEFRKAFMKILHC

| pIC50 [1] | pEC50 [3] | SMILES | ED50 [2] | activation at 30 µM [3, 4] | EC30 [3] | minimal effective concentration [3] | inhibition in vivo at 3 mg/kg (Cisplatin-Induced Emesis) | activation at 10 µM [3, 4] | activation at 100 µM ([3]; at 100 μM, read-out: Average % Maximum Increase) | activation at 300 µM ([3]; at 300 μM, read-out: Average % Maximum Increase) |
| --- | --- | --- | --- | --- | --- | --- | --- | --- | --- | --- |
| < 6.00 | 5.25 | CCN(CC)CCNC(=O)c1cc(Cl)c(N)cc1OCCCC[S+](C)[O-] (stereo not shown) [Example 58] | > 3 mg/kg | 72% | 1.5 µM | 0.3 µM | 66% | – | – | – |
| < 6.00 | 5.34 | CCN(CC)CCNC(=O)c1cc(Cl)c(N)cc1OCC(=O)NN.O.O.O [Example 36, 4-Amino-5-chloro-N-[2-(diethylamino)ethyl]-2-(2-hydrazino-2-oxoethoxy)benzamide Trihydrate] | > 3 mg/kg | – | 0.5 µM | 0.1 µM | 86% | 55% | – | – |
| < 6.00 | 4.70 | CCN(CC)CCNC(=O)c1cc(Cl)c(N)cc1OCC(=O)N1CCCC1 [Example 59, 4-Amino-5-chloro-N-[2-(diethylamino)ethyl]-2-[2-(1-pyrrolidinyl)-2-oxoethoxy]benzamide] | > 3 mg/kg | – | 5.2 µM | 1 µM | 66% | 38% | – | – |
| < 6.00 | 5.32 | CCN(CC)CCNC(=O)c1cc(Cl)c(N)cc1OCC[S+]([O-])CC (stereo not shown) [Example 60] | > 3 mg/kg | 66% | 0.88 µM | 0.1 µM | 52% | – | – | – |
| < 6.00 | 4.41 | CCN(CC)CCNC(=O)c1cc(Cl)c(N)cc1OCCC[S+](C)[O-] (stereo not shown) [Example 50, 4-Amino-5-chloro-N-[2-(diethylamino)ethyl]-2-[3-(methylsulfinyl)propoxy]benzamide] | > 3 mg/kg | 45% | 12 µM | 1 µM | 62% | – | – | – |
| < 6.00 | 5.64 | CCN(CC)CCNC(=O)c1cc(Cl)c(N)cc1OCC[S+](C)[O-] (stereo not shown) [Example 21, 4-Amino-5-chloro-N-[2-(diethylamino)ethyl]-2-[2-(methylsulfinyl)ethoxy]benzamide] | > 3 mg/kg | 88% | 0.57 µM | 0.1 µM | 49% | – | – | – |
| < 6.00 | 4.89 | CCN(CC)CCNC(=O)c1cc(Cl)c(N)cc1OCCNC(C)=O [Example 48] | > 3 mg/kg | – | 2.3 µM | 0.1 µM | 47% | 47% | – | – |
| < 6.00 | 5.26 | CCN(CC)CCNC(=O)c1cc(Cl)c(N)cc1OCC(=O)NC [Example 40] | > 3 mg/kg | – | 0.9 µM | 0.1 µM | 62% | 56% | – | – |
| < 6.00 | 5.43 | CCN(CC)CCNC(=O)c1cc(Cl)c(N)cc1OCC(N)=O [Example 16, 4-Amino-2-(2-amino-2-oxoethoxy)-5-chloro-N-[2-(diethylamino)ethyl]benzamideAcetate Monohydrate] | > 3 mg/kg | – | 0.5 µM | 0.03 µM | 21% | – | 72% | – |
| < 6.00 | 5.18 | CCN(CC)CCNC(=O)c1cc(Cl)c(N)cc1OCC(=O)NNC(C)=O [Example 37, 4-Amino-5-chloro-N-[2-(diethylamino)ethyl]-2-[2-(2-acetylhydrazino)-2-oxoethoxy]benzamide Acetate] | > 3 mg/kg | – | 0.72 µM | – | 57% | – | – | 83% |
| < 6.00 | – | CCN(CC)CCNC(=O)c1cc(Cl)c(N)cc1OCCCN [Example 39, 4-Amino-2-(3-aminopropoxy)-5-chloro-N-[2-(diethylamino)ethyl]benzamide] | > 3 mg/kg | – | – | – | 71% | – | – | – |

| SMILES | pIC50 [1] | pEC50 [3] | ED50 [2] | activation at 30 µM [3, 4] | EC30 [3] | minimal effective concentration [3] | inhibition in vivo at 3 mg/kg (Cisplatin-Induced Emesis) | activation at 10 µM [3, 4] | activation at 100 µM ([3]; at 100 μM, read-out: Average % Maximum Increase) | activation at 300 µM ([3]; at 300 μM, read-out: Average % Maximum Increase) |
| --- | --- | --- | --- | --- | --- | --- | --- | --- | --- | --- |
| CCN(CC)CCNC(=O)c1cc(Cl)c(N)cc1OCCCC(=O)N(CC)CC [Example 56, 4-Amino-5-chloro-N-[2-(diethylamino)ethyl]-2-(4-diethylamino-4-oxobutoxy)benzamide] | < 6.00 | 5.14 | > 3 mg/kg | 59% | 1.1 µM | 0.1 µM | 81% | – | – | – |

From patent US4820715A, “Anti-emetic quinuclidinyl benzamides” (Bristol-Myers Company, priority 1987, dated 1989)
